Data reported in PMC9491098, “Discovery of novel drug-like antitubercular hits targeting the MEP pathway enzyme DXPS by strategic application of ligand-based virtual screening” (Chemical Science, 2022).
In brackets after ≈: the same amount, converted by molar mass. Several values for one entry are separate records, joined by “and”; a condition that tells them apart may be missing. Identical values can stand only once. Like-named read-outs stand apart in the source and are kept apart here.

How the values were obtained:
E. coli = details: Fig. 1A; cited from earlier work
DXPS = details: cited from earlier work
MtDXPS [1] = molecular target: T1, MtDXPS (Mycobacterium tuberculosis, UniProt P9WNS3); test: biochemical
T1 sequence (P9WNS3 whole entry, looked up): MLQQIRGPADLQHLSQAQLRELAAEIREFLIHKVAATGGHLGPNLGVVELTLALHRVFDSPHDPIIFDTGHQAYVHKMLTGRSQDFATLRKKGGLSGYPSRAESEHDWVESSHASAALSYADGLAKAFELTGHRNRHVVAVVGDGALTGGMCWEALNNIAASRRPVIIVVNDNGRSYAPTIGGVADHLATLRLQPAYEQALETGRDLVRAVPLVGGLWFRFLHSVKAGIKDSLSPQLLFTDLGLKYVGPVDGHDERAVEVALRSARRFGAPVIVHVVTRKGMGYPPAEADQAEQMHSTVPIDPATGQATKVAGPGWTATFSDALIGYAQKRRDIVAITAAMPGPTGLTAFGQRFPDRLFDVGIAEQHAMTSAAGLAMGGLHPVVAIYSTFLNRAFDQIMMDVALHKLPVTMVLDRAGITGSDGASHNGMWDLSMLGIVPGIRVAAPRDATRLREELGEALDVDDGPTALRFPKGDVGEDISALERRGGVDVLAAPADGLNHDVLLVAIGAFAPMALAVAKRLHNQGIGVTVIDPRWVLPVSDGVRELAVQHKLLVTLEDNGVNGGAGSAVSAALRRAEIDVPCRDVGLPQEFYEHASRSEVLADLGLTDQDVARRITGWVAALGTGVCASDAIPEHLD

DrDXPS (WT) [2] = molecular target: T2, DrDXPS (WT) (Deinococcus radiodurans, UniProt Q9RUB5); details: pseudo-inhibitors; cited from earlier work
T2 sequence (Q9RUB5 whole entry, looked up): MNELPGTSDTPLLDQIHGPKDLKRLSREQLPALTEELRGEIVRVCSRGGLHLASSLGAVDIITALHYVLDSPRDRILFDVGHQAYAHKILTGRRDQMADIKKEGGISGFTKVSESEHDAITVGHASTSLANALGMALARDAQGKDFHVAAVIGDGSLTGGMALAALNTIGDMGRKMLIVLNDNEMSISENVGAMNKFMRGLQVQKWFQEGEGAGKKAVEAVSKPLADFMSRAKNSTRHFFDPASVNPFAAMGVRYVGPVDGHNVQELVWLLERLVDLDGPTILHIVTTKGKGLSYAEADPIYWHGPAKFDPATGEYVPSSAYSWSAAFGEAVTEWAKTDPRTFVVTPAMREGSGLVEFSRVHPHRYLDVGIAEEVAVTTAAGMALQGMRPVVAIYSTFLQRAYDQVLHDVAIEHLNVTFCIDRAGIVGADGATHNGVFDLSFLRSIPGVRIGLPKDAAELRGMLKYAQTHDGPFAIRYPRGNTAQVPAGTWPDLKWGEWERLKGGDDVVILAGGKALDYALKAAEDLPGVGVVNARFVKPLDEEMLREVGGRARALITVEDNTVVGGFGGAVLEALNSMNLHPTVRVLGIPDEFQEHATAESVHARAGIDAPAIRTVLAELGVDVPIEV

[3] = test system: E. coli strain BL21 (DE3) pQEYAEM; test: microbe, parasite or virus in culture; format: cell-based; details: Escherichia coli, Fig. 6A
MtDXPS [4] = molecular target: T1, MtDXPS; test: biochemical; details: for inhibitory activity against MtDXPS, SAR statement: SAR discussion of Table 1A–C
E. coli TolC = test: microbe, parasite or virus in culture; format: cell-based; details: Escherichia coli
M. tuberculosis strains = test: MIC against multiple M. tuberculosis strains, absolute concentration method on 7H10 agar; format: cell-based; details: Mycobacterium tuberculosis
HEK293 = test: toxicity against human cell lines; format: cell-based; details: HEK293, 48 h, read-out: Toxicity Human cell lines EC50 (μM) HEK293
[5] = metabolic stability in human liver S9 fraction; details: pooled liver S9 fraction
Experimental: For vitro assessment of metabolic stability, 10 µL of each compound (10 µM) was
incubated with human pooled liver S9-fraction (1 mg/mL, Corning, Corning, NY, USA)
in a master mix containing 2 mM NADP, 10 mM glucose-6-phosphate, 10 U/mL
glucose-6-phosphate dehydrogenase, 1 mM UDPGA, 0.1 mM PAPS, 10 mM MgCl2.
acetonitrile containing diphenhydramine as internal standard at 4 °C. The supernatant
was used for LC-MS analysis and half life time t1/2 was calculated from decreasing
concentrations/peak areas.
LC conditions: samples were analyzed with an Ultimate 3000 HPLC (Thermo Fisher,
Waltham, MA, USA) coupled to a TSQ Quantum Access Max triple quadrupole mass
spectrometer (Thermo Fisher, Waltham, MA, USA) in SRM mode. Analysis was
performed on a Nucleodur C18 Pyramid column (3 µm, 2x150 mm, Macherey-Nagel,
Düren, Germany) with a flow of 0.6 mL/min and a water (0.1% formic acid) and
acetonitrile (0.1% formic acid) eluent system. Gradient as follows: 10% acetonitrile for
1 min, 10–90% acetonitrile over 0.7 min, 90% acetonitrile for 1.8 min, equilibration at
10% acetonitrile for 1 min.
MS conditions: calibration of mass spectrometer parameters was performed
individually for each compound:

A549 = test: toxicity against human cell lines; format: cell-based; details: A549, 48 h, read-out: Toxicity Human cell lines EC50 (μM) A549
DrDXPS (WT) [6] = molecular target: T2, DrDXPS (WT); test: biochemical; format: biochemical; details: for inhibition at 100 µM: read-out: Inhibition % at 100 μM, Fig. 5E, DrDXPS (WT); for IC50: DrDXPS (WT) IC50, Fig. 2B
MtDXPS [7] = molecular target: T1, MtDXPS; test: microscale thermophoresis (MST) dissociation constant; format: binding; details: Fig. 4F
Experimental: ETB + A <===> ETAB : Ka2 (Ka2 is the dissociation constant of pyruvate with […]
ETA + B <===> ETAB : Kb2 (Kb2 is the dissociation constant of ThDP with DXPS) E + I <===> EI* : Ki* (Ki* is the Morrison inhibition constant of inhibitor with apoDXPS) ETAB ---> ET + P : kcat (kcat is the catalytic constant of DXPS) […]
microscale thermophoresis (MST)
MST measurements were performed on a Monolith NT.115 (NanoTemper
Technologies GmbH, Germany) instrument using red-dye-NHS fluorescent labeling.
Each purified MtDXPS sample was labeled with red-dye-NHS second generation dye, according to the supplied protocol. Measurements were performed in 100 m M Tris-HCl (pH 7.6) containing 0.05% Tween-20 and 5% DMSO in premium treated capillaries.
The final concentration of each labeled protein in the assay was 100 n M. The inhibitors were titrated in 1:1 dilutions according to the supplier’s recommendations. All binding reactions were incubated at room temperature for 30 min before loading, and then pre-incubated for 5 min at room temperature after loading into the capillaries. Experiments were performed in duplicates, using 40% LED power, medium MST power, laser on time 20 s, and laser off time 3 s. Kds of the inhibitors were extracted from raw data at a 10–20 s on time according to the manufacturer’s instructions. A denaturation test was performed to exclude any nonspecific spectral interactions between the inhibitors […]
The solutions were vortexed, and then the rest of the assay components was added in the following order: HEPES, pH = 8 (100 m M), bovine serum albumin (1 mg/mL), cysteine (2 mM), ThDP (0.325 μM), coenzyme-A (150 μM), TCEP (300 μM), pyruvate (150 μM) and MgCl2 (1 mM). […] Porcine PDH (final concentration of 0.01 U/ mL) was then added to initiate the reactions, which were monitored spectrophotometrically by measuring the […]

HepG2 = test: toxicity against human cell lines; format: cell-based; details: HepG2, 48 h, read-out: Toxicity Human cell lines EC50 (μM) HepG2
[8] = test system: E. coli strain BL21 (DE3) pET22b-H6[…]; test: microbe, parasite or virus in culture; format: cell-based; details: Escherichia coli, Fig. 6B
MtDXPS [9] = molecular target: T1, MtDXPS
mCherry-Mtb H37Rv = format: cell-based, Mycobacterium tuberculosis
MtDXPS [10] = molecular target: T1, MtDXPS; details: cited from earlier work
[11] = K i* (μM), Table 1A, indole derivatives, MtDXPS
[12] = Table 1A, indole derivatives, MtDXPS, read-out: K i*
[13] = Table 1B, oxime derivatives, MtDXPS, read-out: K i*
[14] = Table 1C, aminothiazole derivatives, MtDXPS, read-out: K i*
[15] = Table S3, third round of LBVS, MtDXPS, read-out: IC50

CCCCOP(=O)(O)C(C)=O [BAP, Butylacetylphosphonate]
Activity on target pathogen: MIC (E. coli): 5 µM
Ki (DXPS; read-out: Activity on target enzyme: Ki, Fig. 1A): 5.6 µM

COc1cncc(Cn2ccnc2)c1 [Compound 1, reference compound]
IC50 (MtDXPS [1]): > 2000 µM
inhibition of DrDXPS (DrDXPS (WT) [2]): weak inhibitors

OCc1cc(CO)n(CCc2c[nH]cn2)n1 [Compound 2, reference compound]
IC50 (MtDXPS [1]): > 2000 µM
inhibition of DrDXPS (DrDXPS (WT) [2]): weak inhibitors

OCc1cn(Cc2ccc(Cl)c(Cl)c2)c2ccccc12 [Compound 7]
MIC ([3]; [IPTG] 0 mM): 13 ± 1 µM (≈ 3.98 µg/mL)
MIC ([3]; [IPTG] 0.5 mM (E. coli IspC overexpression)): 10 ± 2 µM (≈ 3.06 µg/mL)
Ki (MtDXPS [4]; [11]): 1.3 ± 0.2 µM
Ki (MtDXPS [4]; Morrison constant Ki* against MtDXPS, two-step tight-binding Morrison model, Dynafit, text and Fig. 4C–E): 1.29 µM
IC50 (MtDXPS [1]; IC50 (μM)): 34 ± 4 µM
IC50 (MtDXPS [1]; IC50 against MtDXPS): 34 µM and 82 µM
IC50 (MtDXPS [1]; IC50 against MtDXPS (MOI study)): 12 µM and 34 µM and 33 µM and 59 µM
mode of inhibition on MtDXPS (MtDXPS [1]; MOI study, comparison of IC50 under varied [ThDP], [PYR], [D-GAP]): competitive with ThDP and D-GAP, but non-competitive with PYR
equilibration time (slow-binding) (MtDXPS [1]; time-dependent progress curves, Fig. 4A, inhibitor 100 µM): ~100 s
MIC (E. coli TolC): 22 ± 1 µM (≈ 6.74 µg/mL)
MIC (M. tuberculosis strains; read-out: Antitubercular activity Strain & MIC (μM) A): 10 µM (≈ 3.06 µg/mL)
MIC (M. tuberculosis strains; read-out: Antitubercular activity Strain & MIC (μM) B): 10 µM (≈ 3.06 µg/mL)
MIC (M. tuberculosis strains; read-out: Antitubercular activity Strain & MIC (μM) C): 5 µM (≈ 1.53 µg/mL)
MIC (M. tuberculosis strains; read-out: Antitubercular activity Strain & MIC (μM) D): 5 to 10 µM (≈ 1.53 to 3.06 µg/mL)
MIC (M. tuberculosis strains; read-out: Antitubercular activity Strain & MIC (μM) E): 5 to 10 µM (≈ 1.53 to 3.06 µg/mL)
MIC (M. tuberculosis strains; read-out: Antitubercular activity Strain & MIC (μM) F): 5 to 10 µM (≈ 1.53 to 3.06 µg/mL)
EC50 (HEK293): 16 ± 7 µM
half-life at 10 µM [5]: 6 ± 2 min
EC50 (A549): ~50 µM
inhibition at 100 µM (DrDXPS (WT) [6]; [ThDP] 0.1 μM (1.6x Km), [PYR] 0.5 mM (2.4x), [D-GAP] […] (1.5x)): 63 ± 4%
inhibition at 100 µM (DrDXPS (WT) [6]; [ThDP] 0.1 μM (1.6x Km), [PYR] […] (1.2x), [D-GAP] 0.5 mM (2.9x)): 51 ± 3%
inhibition at 100 µM (DrDXPS (WT) [6]; [ThDP] 0.1 μM (1.6x Km), [PYR] […] (1.2x), [D-GAP] […] (1.5x)): 61 ± 5%
inhibition at 100 µM (DrDXPS (WT) [6]; [ThDP] 0.2 μM (3.2x Km), [PYR] […] (1.2x), [D-GAP] […] (1.5x)): 48 ± 4%
Kd (MtDXPS [7]): 1.37 µM
EC50 (HepG2): 0.8 ± 0.2 µM
MIC ([8]; [IPTG] 0 mM): 10 ± 3 µM (≈ 3.06 µg/mL)
MIC ([8]; [IPTG] 0.5 mM (MtDXPS overexpression)): 14 ± 2 µM (≈ 4.29 µg/mL)
hit validation (false-positive check) (MtDXPS [9]): true inhibitors

O=Cc1cn(Cc2ccc(Cl)c(Cl)c2)c2ccccc12 [Compound 13]
Ki (MtDXPS [4]; [11]): > 10 µM

COCc1cn(Cc2ccc(Cl)c(Cl)c2)c2ccccc12 [Compound 14]
Ki (MtDXPS [4]; [12]): > 5 µM

OCc1cn(Cc2cccc(Cl)c2)c2ccccc12 [Compound 15]
Ki (MtDXPS [4]; [12]): > 10 µM

OCc1cn(Cc2ccc(Cl)cc2)c2ccccc12 [Compound 16]
Ki (MtDXPS [4]; [12]): 5.5 ± 0.6 µM

OCc1cn(Cc2ccc(Cl)c(Cl)c2)c2ccc(F)cc12 [Compound 17]
inhibitory activity against MtDXPS, SAR statement (MtDXPS [4]): more active than their parent molecules
Ki (MtDXPS [4]; [12]): 0.4 ± 0.06 µM
EC50 (HEK293): > 50 µM
half-life at 10 µM [5]: 27 ± 10 min
EC50 (A549): > 50 µM
EC50 (HepG2): > 50 µM
activity against M. tuberculosis strains (mCherry-Mtb H37Rv): no activity

N#Cc1ccc2c(CO)cn(Cc3ccc(Cl)c(Cl)c3)c2c1 [Compound 18]
Ki (MtDXPS [4]; [12]): 1.7 ± 0.3 µM

COc1cccc2c(CO)cn(Cc3ccc(Cl)c(Cl)c3)c12 [Compound 19]
Ki (MtDXPS [4]; [12]): 1.4 ± 0.3 µM

CO/N=C(\Cc1ccc(Cl)cc1)c1ccc(O)cc1O [Compound 20]
Ki (MtDXPS [4]; [13]): > 10 µM

N/N=C(\Cc1ccc(Cl)cc1)c1ccc(O)cc1O [Compound 21]
inhibitory activity against MtDXPS, SAR statement (MtDXPS [4]): activity is partially retained
Ki (MtDXPS [4]; [13]): 0.4 ± 0.05 µM

COc1ccc(C/C(=N\O)c2ccc(O)cc2O)cc1 [Compound 22]
Ki (MtDXPS [4]; [13]): > 10 µM

COc1ccc(/C(Cc2ccc(Cl)cc2)=N/O)c(O)c1 [Compound 24]
Ki (MtDXPS [4]; [13]): 0.5 ± 0.1 µM

Nc1ccc(/C(Cc2ccc(Cl)cc2)=N/O)c(O)c1 [Compound 25]
inhibitory activity against MtDXPS, SAR statement (MtDXPS [4]): more active than their parent molecules
Ki (MtDXPS [4]; [13]): 0.1 ± 0.03 µM
EC50 (HEK293): 18 ± 5.5 µM
half-life at 10 µM [5]: 56 ± 0.4 min
EC50 (A549): ~50 µM
EC50 (HepG2): 0.73 ± 0.12 µM
activity against M. tuberculosis strains (mCherry-Mtb H37Rv): retains some activity

Cc1nc(N)sc1-c1csc(Nc2ccccc2)n1 [Compound 26]
Ki (MtDXPS [4]; [14]): > 10 µM
IC50 (MtDXPS [1]; [15]): > 120 µM

Cc1nc(N)sc1-c1csc(Nc2ccccc2C(F)(F)F)n1 [Compound 27]
Ki (MtDXPS [4]; [14]): 0.3 ± 0.02 µM

Cc1nc(N)sc1-c1csc(Nc2cccc(C(F)(F)F)c2)n1 [Compound 28]
Ki (MtDXPS [4]; [14]): 0.4 ± 0.06 µM

Oc1ccc(-c2csc(Nc3cccc(C(F)(F)F)c3)n2)c(O)c1 [Compound 29]
Ki (MtDXPS [4]; [14]): 0.5 ± 0.04 µM

Cc1nc(N)sc1-c1csc(Nc2ccc(Cl)cn2)n1 [Compound 30]
Ki (MtDXPS [4]; [14]): 0.3 ± 0.1 µM

Cc1nc(C)c(-c2csc(Nc3ccc(Cl)cn3)n2)s1 [Compound 31]
Ki (MtDXPS [4]; [14]): > 10 µM
IC50 (MtDXPS [1]; [15]): > 500 µM

Cc1nc(NC(=O)c2ccccc2)sc1-c1csc(Nc2ccc(C(F)(F)F)cc2)n1 [Compound 133]
IC50 (MtDXPS [1]; [15]): > 120 µM

Cc1ccc(-c2csc(Nc3cccc(Cl)c3C)n2)cc1 [Compound 134]
IC50 (MtDXPS [1]; [15]): > 16 µM

Cc1c(Cl)cccc1Nc1nc(-c2cccnc2)cs1 [Compound 135]
IC50 (MtDXPS [1]; [15]): > 200 µM

Cc1ncc(Cc2csc(CCO)c2C)c(N)n1 [DZT, deazathiamine, reference compound]
IC50 (MtDXPS [1]): > 4000 µM
inhibition of DrDXPS (DrDXPS (WT) [2]): weak inhibitor
activity against MtDXPS (MtDXPS [10]): not active
IC50 (DrDXPS (WT) [6]; [ThDP] 0.1 μM (1.6x Km), [PYR] 0.5 mM (2.4x), [D-GAP] 0.5 mM (2.9x)): 273 ± 16 µM
IC50 (DrDXPS (WT) [6]; [ThDP] 0.5 μM (8x Km), [PYR] 0.5 mM (2.4x), [D-GAP] 1.0 mM (5.8x)): 1210 ± 156 µM
IC50 (DrDXPS (WT) [6]; [ThDP] 0.5 μM (8x Km), [PYR] […] (1.2x), [D-GAP] 0.5 mM (2.9x)): 486 ± 136 µM
IC50 (DrDXPS (WT) [6]; reference condition [ThDP] 0.5 μM (8x Km), [PYR] 0.5 mM (2.4x), [D-GAP] 0.5 mM (2.9x)): 845 ± 177 µM
mode of inhibition on DrDXPS (DrDXPS (WT) [6]; MOI study, Fig. 2B): competitive with ThDP, PYR and D-GAP

CC1(C)C(=O)ON(Cc2ccccc2Cl)C1=O [Ketoclomazone, ketoclomazone]
IC50 (DXPS; read-out: Activity on target enzyme: IC50, Fig. 1A): 1 µM
